The nature of this data set: photoluminescence quantum yield (fraction); solvent given as SMILES.

The compound `CCCCC#Cc1cccc2cc(CCCC)c3cc(-c4cc[b-]5c(c4)c(CCCC)cc4cccc(C#CCCCC)[n+]54)cc[b-]3[n+]12` showed a photoluminescence quantum yield (in C1CCCCC1) of 0.12.
On to `Cc1sc(-c2ccc(-c3nc(-c4ccccc4)c(-c4ccccc4)[nH]3)cc2)c(C)c1C1=C(c2c(C)n(C)c3ccccc23)C(F)(F)C(F)(F)C1(F)F`, for which, where the note is “in C1CCOC1”, the photoluminescence quantum yield worked out at 0.084.
`CCN(CC)c1ccc(C(=C(c2ccc(B(c3c(C)cc(C)cc3C)c3c(C)cc(C)cc3C)cc2)c2ccc(B(c3c(C)cc(C)cc3C)c3c(C)cc(C)cc3C)cc2)c2ccc(N(CC)CC)cc2)cc1`: the photoluminescence quantum yield (in C1CCOC1) was found to be 0.29.
Take `CCC1(CC)c2cc(/C=C/c3cc(C#N)c(/C=C/c4ccc5c(c4)C(CC)(CC)c4cc(N6c7ccccc7Sc7ccccc76)ccc4-5)cc3C#N)ccc2-c2ccc(N3c4ccccc4Sc4ccccc43)cc21`: the photoluminescence quantum yield was found to be 0.01 (in C1CCOC1), 0.11 (in CCCCCC), 0.06 (in Cc1ccccc1) and 0.01 (in ClCCl).
Turning to `c1ccc(-c2csc(-c3ccncc3)n2)cc1`, the photoluminescence quantum yield is 0.558 (in CC#N); 0.048 (in CCO); 0.041 (in CN(C)C=O); 0 (in CS(C)=O); 0.28 (in ClCCl).
`O=C1c2cccc3c(NCc4ccccn4)c4ccccc4c(c23)C(=O)N1Cc1ccccn1`: the photoluminescence quantum yield is, setting by setting: (in C1CCOC1) 0.07; (in CCCCCC) 0.04; (in CCO) 0.07; (in Cc1ccccc1) 0.08; (in ClCCl) 0.1.
Compound `CSC1=C(C)C2=C(c3ccc(C)cc3)c3c(C)c(Cl)c(C)n3[B-](F)(F)[N+]2=C1C` yielded a photoluminescence quantum yield (in C1CCOC1) of 0.07.
`c1ccc(B2Nc3cc4c(cc3-c3sc5ccccc5c32)NB(c2ccccc2)c2c-4sc3ccccc23)cc1` came in with a photoluminescence quantum yield (in ClCCl) of 0.27.
Turning to `COc1nc(Nc2cc3ccc4cccc5ccc(c2)c3c45)nc(OC)n1`, the photoluminescence quantum yield turned out to be 0.13 (in CC#N), 0.15 (in CCCCOCCCC) and 0.13 (in CO).
On to `c1ccc2c3c(ccc2c1)-c1cccc2cc4ccccc4c-3c12`, for which the photoluminescence quantum yield (in CCCCCCC) came out at 0.00078.
As for `COc1cc(/C=C/c2nc3ccccc3o2)c(OC)cc1/C=C/c1nc(C)nc(C)n1`, the photoluminescence quantum yield is, setting by setting: (in C1CCOC1) 0.89; (in CC#N) 0.85; (in ClC(Cl)Cl) 0.86; (in ClCCl) 0.86.
Take `Cc1cc(N(C)C)cc(C)c1/C=C/C=C/c1ccc(C#N)cc1`: the photoluminescence quantum yield is 0.087 (in C1CCOC1); 0.212 (in CC#N); 0.043 (in CCCCCC); 0.061 (in CCCCOCCCC); 0.168 (in CCO); 0.082 (in CCOCC).
On to `CCOC(=O)C1(O)c2cc3ccc4cccc5ccc(c2C(=O)N1C(C)(C)C)c3c45` (stereo not given), for which, under “in ClC(Cl)Cl”, the photoluminescence quantum yield worked out at 0.152.
Consider `COc1cc(/C=C/c2cc(OC)c(-c3nc(-c4ccccc4)c(-c4ccccc4)[nH]3)cc2OC)c(OC)cc1/C=C/c1cc(OC)c(-c2nc(-c3ccccc3)c(-c3ccccc3)[nH]2)cc1OC`, for which the photoluminescence quantum yield (in C1CCOC1) amounted to 0.54, the photoluminescence quantum yield (in CC#N) was 0.24, the photoluminescence quantum yield (in CN(C)C=O) is 0.42 and the photoluminescence quantum yield (in Cc1ccccc1) was 0.63.
`F[B-]1(F)n2c(-c3ccccc3)cc(-c3cccs3)c2N=C2C(c3cccs3)=CC(c3ccccc3)=[N+]21`: the photoluminescence quantum yield (in ClCCl) came out at 0.1.
Compound `C(#Cc1cc2ccc3cc(C#Cc4ccccc4)cc4ccc(c1)c2c34)c1ccccc1` displayed a photoluminescence quantum yield (in Cc1ccccc1) of 0.29.
The same measure, in the same setting: to `c1ccc(N(c2ccccc2)c2c3ccccc3cc3ccccc23)cc1` belongs 0.92.
Take `CCOC(=O)c1sc(SC)c2c(=O)n(C)nnc12`: the photoluminescence quantum yield is, setting by setting: (in C1CCOC1) 0.016; (in CC#N) 0.029; (in CCO) 0.054; (in CN(C)C=O) 0.013; (in CO) 0.052; (in CS(C)=O) 0.0077.
The compound `CCN(CC)c1ccc2cc(C#N)c(=O)oc2c1` displayed a photoluminescence quantum yield (in ClCCl) of 0.82.
Regarding `F[B-]1(F)n2c(cc(-c3ccccc3)c2-c2ccccc2)C(c2ccccc2)=C2C=C(c3ccccc3)C(c3ccccc3)=[N+]21`, the photoluminescence quantum yield is 0.33 (in C1CCOC1), 0.34 (in CC#N), 0.64 (in Cc1ccccc1) and 0.4 (in ClCCl).
Turning to `CC1(C)CCc2c(c3ccccc3c3nc4ccccc4nc23)O1`, the photoluminescence quantum yield stood at 0.05 (in C1CCCCC1); 0.1 (in C1CCOC1); 0.13 (in CN(C)C=O); 0.23 (in CO); 0.17 (in ClC(Cl)Cl); 0.12 (in c1ccccc1).
As for `c1ccc(-c2nc(-c3ccccc3)nc(-c3ccc(-n4c5ccccc5c5ccc6c7ccccc7n(-c7ccccc7)c6c54)cc3)n2)cc1`, the photoluminescence quantum yield (in O=P(c1ccccc1)(c1ccccc1)c1ccc2oc3ccc(P(=O)(c4ccccc4)c4ccccc4)cc3c2c1) was 0.84.
For the compound `CCOC(=O)c1c2c3c(ccc(F)c3c3cc4ccccc4cc13)N(C)C2=O`, under “in CC#N”, the photoluminescence quantum yield was 0.41.
As for `Cc1ccc2c(c1)c1cc(C)ccc1n2-c1c(C#N)c(-n2c3ccc(C)cc3c3cc(C)ccc32)c(-n2c3ccc(C)cc3c3cc(C)ccc32)c(C#N)c1-n1c2ccc(C)cc2c2cc(C)ccc21`, where the note is “in Cc1ccccc1”, the photoluminescence quantum yield amounted to 0.474.
Still for that read-out and setting: to `CCCCCCCCc1ccc(-n2c3c4ccccc4nnc3c3c2c2nnc4ccccc4c2n3-c2ccc(CCCCCCCC)cc2)cc1` belongs 0.
As for `CC(C)(C)c1ccc2c(c1)c1cc(C(C)(C)C)ccc1n2-c1ccc(N(c2ccc(-c3ccc(-c4ccc(-c5ccc(-c6ccc(-c7ccc(N(c8ccc(-n9c%10ccc(C(C)(C)C)cc%10c%10cc(C(C)(C)C)ccc%109)cc8)c8ccc(-n9c%10ccc(C(C)(C)C)cc%10c%10cc(C(C)(C)C)ccc%109)cc8)cc7)s6)s5)s4)s3)cc2)c2ccc(-n3c4ccc(C(C)(C)C)cc4c4cc(C(C)(C)C)ccc43)cc2)cc1`, for the setting “in ClCCl”, the photoluminescence quantum yield was 0.14.
Compound `c1ccc2[nH]c(-c3ccc(-c4ccc(-c5ccc(-c6nc7ccccc7[nH]6)cc5)cc4)cc3)nc2c1` returned a photoluminescence quantum yield (in CN(C)C=O) of 0.88.
`C(=C\c1cnccn1)/c1ccc2nccnc2c1` gave a photoluminescence quantum yield (in CCCCCC) of 0.001; a photoluminescence quantum yield (in CCO) of 0.09; a photoluminescence quantum yield (in CO) of 0.12; a photoluminescence quantum yield (in ClCCl) of 0.04; a photoluminescence quantum yield (in c1ccccc1) of 0.02.
`Cc1cc(C)c(B(c2ccccc2-n2c3ccccc3c3ccccc32)c2c(C)cc(C)cc2C)c(C)c1` had a photoluminescence quantum yield (in Cc1ccccc1) of 0.79.
Consider `COc1ccc(/C=C(\C)c2nc3ccccc3s2)cc1`, for which the photoluminescence quantum yield (in C1CCCCC1) amounted to 0.001.
On to `CC[N+](CC)=c1ccc2cc3c(oc-2c1)-c1ccc(N(C)C)cc1CC3`, for which the photoluminescence quantum yield came to 0.618 (in CCO), 0.724 (in ClCCl) and 0.282 (in O).
With `CCN1\C(=C/C=C/C=C/C2=[N+](CC)c3ccc4ccccc4c3C2(C)C)C(C)(C)c2c1ccc1ccccc21`, under “in CS(C)=O”, the photoluminescence quantum yield turned out to be 0.302.
In the case of `F[B-]1(F)n2c(/C=C/c3ccc(C(=C(c4ccccc4)c4ccccc4)c4ccccc4)cc3)ccc2C(c2ccc(C(=C(c3ccccc3)c3ccccc3)c3ccccc3)cc2)=C2C=CC(/C=C/c3ccc(C(=C(c4ccccc4)c4ccccc4)c4ccccc4)cc3)=[N+]21`, under “in C1CCOC1”, the photoluminescence quantum yield was 0.503.
As for `COc1ccc2cc(C#Cc3ccc([N+](=O)[O-])cc3)ccc2c1`, the photoluminescence quantum yield reads like this: (in C1CCOC1) 0.025; (in ClC(Cl)Cl) 0.03; (in ClCCl) 0.015.
Compound `COc1ccccc1-c1nc(-c2ccc(C(F)(F)F)cc2)n(-c2ccc(C)cc2)c1-c1ccccc1OC` showed a photoluminescence quantum yield (in CC(C)O) of 0.65; a photoluminescence quantum yield (in CCCCCC) of 0.49; a photoluminescence quantum yield (in CO) of 0.6; a photoluminescence quantum yield (in CS(C)=O) of 0.49; a photoluminescence quantum yield (in ClCCl) of 0.27.
As for `Cc1cc(C)c(B(c2ccccc2N(c2ccccc2)c2ccccc2)c2c(C)cc(C)cc2C)c(C)c1`, for the setting “in Cc1ccccc1”, the photoluminescence quantum yield was 0.73.
`CCOC(=O)C(Cc1ccc(O[Si]2(Oc3ccc(CC(NC(C)=O)C(=O)OCC)cc3)n3c4c5ccccc5c3/N=C3N=C(/N=c5/c6ccccc6/c(n52)=N/C2=NC(=N\4)/c4ccccc42)c2ccccc2\3)cc1)NC(C)=O` (stereo not given) yielded a photoluminescence quantum yield (in CN(C)C=O) of 0.11.
Turning to `COc1ccc(-c2cc3c(s2)c(C(C)=O)cc(=O)n3C)cc1`, the photoluminescence quantum yield runs as follows: (in CC#N) 0.84; (in ClCCl) 0.98.
Take `O=C1c2ccccc2C(=O)c2cc(-c3ccc(N(c4ccccc4)c4ccccc4)cc3)ccc21`: the photoluminescence quantum yield by setting is: (in CCCCCC) 0.392; (in CCOC(C)=O) 0.0001; (in CCOCC) 0.0129; (in Cc1ccccc1) 0.092; (in ClC(Cl)(Cl)Cl) 0.326; (in ClCCl) 0.
Under “in ClCCl”, `COc1ccc(-c2cc(-c3ccc(C#N)cc3)nn2C)cc1` showed a photoluminescence quantum yield of 0.3.
`CCCN1C(=O)c2c3c(c4c(c2C1=O)CCc1cc(-c2ccc(N(C)C)cc2)c(OC)cc1-4)-c1cc(OC)c(-c2ccc(N(C)C)cc2)cc1CC3` registered a photoluminescence quantum yield (in C1CCCCC1) of 0.752; a photoluminescence quantum yield (in C1CCOC1) of 0.069; a photoluminescence quantum yield (in CCOC(C)=O) of 0.065; a photoluminescence quantum yield (in Cc1ccccc1) of 0.726; a photoluminescence quantum yield (in ClCCl) of 0.023.
For `O=C1O[B-]2(OC1=O)OC(c1ccc3ccccc3c1)=CC(c1ccc3ccccc3c1)=[O+]2`, the photoluminescence quantum yield reads like this: (in CC#N) 0.3; (in ClC(Cl)(Cl)Cl) 0.8.
On to `c1ccc(-c2cc3c(oc4ccccc43)c(-c3ccccc3)[o+]2)cc1`, for which the photoluminescence quantum yield is, setting by setting: (in CC#N) 0.18; (in ClCCCl) 0.1.
`C[N+]1=C(/C=C/C=C2/N(CCCS(=O)(=O)[O-])c3ccccc3C2(C)C)C(C)(C)c2ccccc21` returned a photoluminescence quantum yield (in CS(C)=O) of 0.1.

Values taken from the Deep4Chem optical property database.
